Assay results reported in patent US8987287B2, “Spirocyclic morphinans and their use” (Purdue Pharma L.P., priority 2012, dated 2015).

Assays:
[1] = target: μ-opioid receptor (Homo sapiens (Human), UniProt P35372); test: μ-opioid receptor [35S]GTPγS functional assay, U-2 OS cells; assay type: biochemical; settings: for Emax: relative to DAMGO, U-2 OS cells
Description: μ-Opioid Receptor Functional Assay Procedures: [^35S]GTPγS functional assays were conducted using freshly thawed μ-receptor membranes prepared in-house from a cell line expressing recombinant μ opioid receptor in a HEK-293, CHO or U-2 OS cell background, or purchased from a commercial source (Perkin Elmer, Shelton, Conn.; or DiscovRx, Fremont, Calif.). Assay reactions were prepared by sequentially adding the following reagents to binding buffer (100 mM NaCl, 10 mM MgCl2, 20 mM HEPES, pH 7.4) on ice (final concentrations indicated): membrane protein (0.026 mg/mL), saponin ([…]), GDP ([…]) and [^35S]GTPγS (0.20 nM; Perkin Elmer, Shelton, Conn.). The prepared membrane solution (190 μl/well) was transferred to 96-shallow well polypropylene plates containing 10 μl of 20× concentrated stock solutions of the agonist [D-Ala^2, N-methyl-Phe^4 Gly-ol^5]-enkephalin (DAMGO) prepared in dimethyl sulfoxide (DMSO). Plates were incubated for 30 min at about 25° C. with shaking. Reactions were terminated by rapid filtration onto 96-well Unifilter GF/B filter plates (Perkin Elmer, Shelton, Conn.) using a 96-well tissue harvester (Perkin Elmer, Shelton, Conn.) followed by three filtration washes with 200 μl of ice-cold wash buffer (10 mM NaH2PO4, 10 mM Na2HPO4, pH 7.4). Filter plates were subsequently dried at 50° C. for 2-3 hours. BetaScint scintillation cocktail (Perkin Elmer, Shelton, Conn.) was added (50 μl/well) and plates were counted using a Packard Top-Count for 1 min/well. Data were analyzed using the sigmoidal dose-response curve fitting functions in GraphPad PRISM v. 3.0, or an in-house function for non-linear, sigmoidal dose-response curve-fitting.
μ-Opioid Receptor Functional Data: μ GTP EC50 is the concentration of a compound providing 50% of the maximal response for the compound at a μ-opioid receptor.
μ GTP Emax (%) is the maximal effect elicited by a compound relative to the effect elicited by DAMGO, a standard μ agonist. Generally, the μ GTP Emax (%) value measures the efficacy of a compound to treat or prevent pain or other Conditions.
(§1) The following TABLE 3 provides results on the activity response of certain Compounds of the Invention at the μ- and κ-opioid receptors determined as described above using U-2 OS cells.

[2] = target: κ opioid receptor (Homo sapiens (Human), UniProt P41145); test: κ-opioid receptor [35S]GTPγS functional assay, U-2 OS cells; assay type: biochemical; settings: for Emax: relative to U69,593, U-2 OS cells
Description: κ-Opioid Receptor Functional Assay Procedures: Functional [^35S]GTPγS binding assays were conducted as follows. κ opioid receptor membrane solution was prepared by sequentially adding final concentrations of 0.026 μg/μl κ membrane protein (in-house), 10 μg/mL saponin, 3 μM GDP and 0.20 nM [^35S]GTPγS to binding buffer (100 mM NaCl, 10 mM MgCl2, 20 mM HEPES, pH 7.4) on ice. The prepared membrane solution (190 μl/well) was transferred to 96-shallow well polypropylene plates containing 10 μl of 20× concentrated stock solutions of agonist prepared in DMSO. Plates were incubated for 30 min at a temperature of about 25° C. with shaking. Reactions were terminated by rapid filtration onto 96-well Unifilter GF/B filter plates (Perkin Elmer, Shelton, Conn.) using a 96-well tissue harvester (Packard) and followed by three filtration washes with 200 μl ice-cold binding buffer (10 mM NaH2PO4, 10 mM Na2HPO4, pH 7.4). Filter plates were subsequently dried at 50° C. for 2-3 hours. Fifty μl/well scintillation cocktail (Perkin Elmer, Shelton, Conn.) was added and plates were counted in a Packard Top-Count for 1 min/well.
κ-Opioid Receptor Functional Data: κ GTP EC50 is the concentration of a compound providing 50% of the maximal response for the compound at a κ receptor.
κ GTP Emax (%) is the maximal effect elicited by a compound relative to the effect elicited by U69,593.
as §1

O=C1NC(=O)[C@@]2(CC[C@@]3(O)[C@H]4Cc5ccc(O)cc5[C@@]3(CCN4CC3CC3)C2)N1CC1CC1 [Compound 65, (4S,4b′R,8a′S,9′R)-3,11′-bis(cyclopropylmethyl)-3′,8a′-dihydroxy-8′,8a′,9′,10′-tetrahydro-5′H,7′H-spiro[imidazolidine-4,6′-[9,4b](epiminoethano)phenantrene]-2,5-dione]
EC50 [1]: > 20000 nM | Emax [1]: 2% | EC50 [2]: 36.4 ± 7.08 nM | Emax [2]: 92.3 ± 1.45%

CN1CC[C@]23C[C@@]4(CC[C@@]2(O)[C@H]1Cc1ccc(O)cc13)C(=O)NC(=O)N4CC1CC1 [Compound 66, (4bR,4′S,8aS,9R)-3′-(cyclopropylmethyl)-3,8a-dihydroxy-11-methyl-5,7,8,8a,9,10-hexahydrospiro[9,4b-(epiminoethano)phenanthren-6,4′-imidazolidine]-2′,5′-dione]
EC50 [1]: 76 ± 2.31 nM | Emax [1]: 98 ± 1.15% | EC50 [2]: 4650 ± 302 nM | Emax [2]: 103 ± 7.09%

O=C1NC(=O)[C@@]2(CC[C@@]3(O)[C@H]4Cc5ccc(O)cc5[C@@]3(CCN4CC3CC3)C2)N1Cc1ccccc1 [Compound 67, (4bR,4′S,8aS,9R)-3′-benzyl-11-(cyclopropylmethyl)-3,8a-dihydroxy-5,7,8,8a,9,10-hexahydrospiro[9,4b-(epiminoethano)phenanthrene-6,4′-imidazolidine]-2′,5′-dione]
EC50 [1]: 9.38 ± 0.76 nM | Emax [1]: 20% | EC50 [2]: 28.4 ± 8.48 nM | Emax [2]: 115 ± 4.84%

N#CCN1C(=O)NC(=O)[C@@]12CC[C@@]1(O)[C@H]3Cc4ccc(O)cc4[C@@]1(CCN3CC1CC1)C2 [Compound 68, 2-((4bR,4′S,8aS,9R)-11-(cyclopropylmethyl)-3,8a-dihydroxy-2,5-dioxo-5,7,8,8a,9,10-hexahydrospiro[9,4b-(epiminoethano)phenanthrene-6,4′-imidazolidin]-3′-yl)acetonitrile]
EC50 [1]: 5.63 ± 1.74 nM | Emax [1]: 16 ± 1.15% | EC50 [2]: 7.06 ± 1.53 nM | Emax [2]: 108 ± 6.89%

CCN1C(=O)NC(=O)[C@@]12CC[C@@]1(O)[C@H]3Cc4ccc(O)cc4[C@@]1(CCN3C)C2 [Compound 69, (4S,4b′R,8a′S,9′R)-3-ethyl-3′,8a′-dihydroxy-11′-methyl-8′,8a′,9′,10′-tetrahydro-5′H,7′H-spiro[imidazolidine-4,6′-[9,4b](epiminoethano)phenantrene]-2,5-dione]
EC50 [1]: 43.6 ± 2.97 nM | Emax [1]: 97.3 ± 1.45% | EC50 [2]: 866 ± 94.6 nM | Emax [2]: 110 ± 8.5%

CN1CC[C@]23C[C@@]4(CC[C@@]2(O)[C@H]1Cc1ccc(O)cc13)C(=O)NC(=O)N4C [Compound 70, (4S,4b′R,8a′S,9′R)-3′,8a′-dihydroxy-3,11′-dimethyl-8′,8a′,9′,1′-tetrahydro-5′H,7′H-spiro[imidazolidine-4,6′-[9,4b](epiminoethano)phenantrene]-2,5-dione]
EC50 [1]: 23.4 ± 2.03 nM | Emax [1]: 99 ± 1.53% | EC50 [2]: 322 ± 28.1 nM | Emax [2]: 118 ± 9.61%
